# Laboratory results published in patent US7910593B2, “Water-soluble prodrugs” (Chugai Seiyaku Kabushiki Kaisha, priority 2004, dated 2011).
# Counter-ions that a name gives are not always drawn. Like-named read-outs stand apart in the source and are kept apart here.
# How the values were obtained:
# [1] = Test Example 3: solubility in distilled water; format: physicochemical
# Text: The solubility of the water-soluble prodrugs obtained in the Examples (compounds 1A to 8A) in distilled water was compared to the solubility of (9S)-9-ethyl-9-hydroxy-1-pentyl-1H,12H-pyrano[3″,4″:6′,7′]indolizino[1′,2′:6,5]pyrido[4,3,2-de]quinazoline-10,13 (9H,15H)-dione (representative compound in Patent document 2: reference compound 1).
# [2] = test system: human colon cancer cell line HCT116; assay: Test Example 4: antitumor effect in HCT116 tumor-bearing nude mice; format: in vivo, BALB/c nude mice; conditions: once per week for three weeks
# Procedure: Antitumor effects were determined for representative examples of the group of compounds of the present invention. Tumor-bearing mice were generated by subcutaneous transplantation of human colon cancer cell line HCT116 obtained from American Type Culture Collection (Virginia, USA) into the right flank of BALB/c nude mice purchased from Charles River Japan, and used for determination of antitumor effects.
# After a one-week quarantine period, the purchased nude mice were subjected to subcutaneous transplantation of 5×10^6 HCT116 cells at their right flank. Mice with a tumor size reaching 200 mm^3 or so were subjected to the experiment.
# The compounds were dissolved in 1 mM citric bufferes saline, pH 4, and administered intravenously. The administration was carried out once per week for three weeks, for a total of three administrations. The antitumor effect was determined as tumor growth inhibition (TGI) using the following equation. Tumor growth inhibition (TGI) (%)={(1−mean tumor volume change in the drug-treated group/mean tumor volume change in the control group)×100} The results are shown in Table 6.
# [3] = Comparative Test Example 1: conversion of reference compound 2 in human sera; format: in vitro ADME; conditions: FIG. 6
# Procedure: (§1) Compound 2A was incubated at 37° C. at a concentration of 50 μM in sera of humans, mice, monkeys, and dogs. Incubation was terminated at a given time (0, 30, 60, 120, and 360 minutes), and the samples were analyzed by HPLC after deproteinization treatments.
# (§2) Conditions for the HPLC analysis are as follows: • HPLC conditions • Column: Develosil C30-UG-3, 3 μm, 50×4.6 mm I.D • Column Temperature: constant temperature at approximately 25° C. • Mobile phase: A: 10 mM phosphate buffer (pH4.7) • B: acetonitrile • /B (min): 90/10(0)→90/10(0.4)→40/60(6)→2/98(8)→90/10(9)→90/10(15)
# (§3) Flow rate: 1.0 mL/min • Detection: photodiode array detector, detection wavelength 350 nm • Amount injected: 30 μL
# (§4) Similar to Examination 1, the percent changes of (9S)-9-ethyl-9-(tryptophyl-γ-glutamyloxy)-1-pentyl-1H,12H-pyrano[3″,4″:6′,7′]indolizino[1′,2′:6,5]pyrido[4,3,2-de]quinazoline-10,13(9H,15H)-dione [representative compound (Q) in Patent document 1: reference compound 2] being converted in the lactone form and the carboxylate form over time in human and mouse sera were determined.
# [4] = Comparative Test Example 1: conversion of reference compound 2 in mouse sera; format: in vitro ADME; conditions: FIG. 7
# Procedure: as §1, §2, §3, §4
# [5] = distilled water, read-out: Solubility in distilled water
smiles,measurement,setting,value
"CCCCCN1C=Nc2cccc3nc4c(c1c23)Cn1c-4cc2c(c1=O)COC(=O)[C@]2(O)CC [Reference compound 1, (9S)-9-ethyl-9-hydroxy-1-pentyl-1H,12H-pyrano[3″,4″:6′,7′]indolizino[1′,2′:6,5]pyrido[4,3,2-de]quinazoline-10,13 (9H,15H)-dione, reference compound]",solubility,[1]; water,< 10 µg/mL
"CCCCCN1C=Nc2cccc3nc4c(c1c23)Cn1c-4cc2c(c1=O)COC(=O)[C@@]2(CC)OC(=O)OCCS(=O)(=O)CCN.Cl [Compound 8A, (9S)-9-[2-(2-Aminoethanesulfonyl)ethoxycarbonyloxy]-9-ethyl-1-pentyl-1H,12H-pyrano[3″,4″: 6′,7′]indolizino[1′,2′:6,5]pyrido[4,3,2-de]quinazoline-10,13(9H,15H)-dione hydrochloride]",solubility,[1]; [5],> 10000 µg/mL
same,TGI (%) on Day 21,[2]; 0.9 mg/kg intravenously,41%
same,TGI (%) on Day 21,[2]; 1.9 mg/kg intravenously,53%
same,TGI (%) on Day 21,[2]; 3.75 mg/kg intravenously,55%
same,TGI (%) on Day 21,[2]; 7.5 mg/kg intravenously,61%
same,TGI (%) on Day 21,[2]; 15 mg/kg intravenously,78%
same,TGI (%) on Day 21,[2]; 30 mg/kg intravenously,96%
same,TGI (%) on Day 21,[2]; 60 mg/kg intravenously,106%
"CCCCCN1C=Nc2cccc3nc4c(c1c23)Cn1c-4cc2c(c1=O)COC(=O)[C@@]2(CC)OC(=O)CN(C)C(=O)CNC.Cl [Compound 4A, (9S)-9-Ethyl-9-(sarcosyl-sarcosyloxy)-1-pentyl-1H,12H-pyrano[3″,4″:6′,7′]indolizino[1′,2′:6,5]pyrido[4,3,2-de]quinazoline-10,13(9H,15H)-dione hydrochloride]",solubility,[1]; [5],> 10000 µg/mL
"CCCCCN1C=Nc2cccc3nc4c(c1c23)Cn1c-4cc2c(c1=O)COC(=O)[C@@]2(CC)OC(=O)CC[C@H](NC(=O)[C@@H](N)Cc1c[nH]c2ccccc12)C(=O)O [reference compound 2, (9S)-9-ethyl-9-(tryptophyl-γ-glutamyloxy)-1-pentyl-1H,12H-pyrano[3″,4″:6′,7′]indolizino[1′,2′:6,5]pyrido[4,3,2-de]quinazoline-10,13(9H,15H)-dione]",conversion rate and efficiency into the lactone form and the carboxylate form,[3],low
same,conversion rate and efficiency into the lactone form and the carboxylate form,[4],low
"CCCCCN1C=Nc2cccc3nc4c(c1c23)Cn1c-4cc2c(c1=O)COC(=O)[C@@]2(CC)OC(=O)CN(C)CCNC.Cl [Compound 1A, (9S)-9-Ethyl-9-{[methyl-(2-methylamino-ethyl)-amino]-acetoxy}-1-pentyl-1H,12H-pyrano[3″,4″:6′,7′]indolizino[1′,2′:6,5]pyrido[4,3,2-de]quinazoline-10,13(9H,15H)-dione hydrochloride]",solubility,[1]; [5],> 10000 µg/mL
"CC[C@@]1(OC(=O)CN(C)C(=O)CN)C(=O)OCc2c1cc1n(c2=O)Cc2cc3ccccc3nc2-1.Cl [Compound 5A, (aminoacetyl-methyl-amino)-acetic acid (S)-4-ethyl-3,13-dioxo-3,4,12,13-tetrahydro-1H-2-oxa-6,12a-diaza-dibenzo[b,h]fluoren-4-yl ester hydrochloride]",solubility,[1]; [5],> 10000 µg/mL
"CCCCCN1C=Nc2cccc3nc4c(c1c23)Cn1c-4cc2c(c1=O)COC(=O)[C@@]2(CC)OC(=O)OCCS(=O)(=O)C[C@H](N)C(=O)OC [Compound 6A, (9S)-9-{2-[(R-2-Amino-2-methoxycarbonyl)ethanesulfonyl]ethoxycarbonyloxy}-9-ethyl-1-pentyl-1H,12H-pyrano[3″,4″:6′,7′]indolizino[1′,2′:6,5]pyrido[4,3,2-de]quinazoline-10,13(9H,15H)-dione trifluoroacetic acid salt]",solubility,[1]; [5],> 10000 µg/mL
"CCCCCN1C=Nc2cccc3nc4c(c1c23)Cn1c-4cc2c(c1=O)COC(=O)[C@@]2(CC)OC(=O)CN(C)CCN.Cl [Compound 3A, (9S)-9-{[(2-Amino-ethyl)-methyl-amino]-acetoxy}-9-ethyl-1-pentyl-1H,12H-pyrano[3″,4″:6′,7′]indolizino[1′,2′:6,5]pyrido[4,3,2-de]quinazoline-10,13(9H,15H)-dione hydrochloride]",solubility,[1]; [5],> 10000 µg/mL
